In US11903959B2 (EMORY UNIVERSITY, priority 2017, dated 2024):
Where two headings read alike, the source gives them in different places.

How the values were obtained:
in vitro [1] = conditions: dog, microsomes
in vitro [2] = conditions: human, microsomes
[3] = test system: Influenza A/California/07/2009 (H1N1); set-up: species or system ferrets; conditions: in vivo, po
in vitro [4] = conditions: monkey, microsomes
[5] = cynomolgus monkey, in vivo, po; for AUC0->24 h / CL / Cmax / t1/2 / tmax: 0.4 mmol/kg
in vitro [6] = conditions: mouse, microsomes
[7] = test system: Influenza A/Wisconsin/67/2005 (H3N2); set-up: species or system ferrets; conditions: in vivo
in vitro [8] = conditions: rat, microsomes
[9] = mouse, in vivo

Row | SMILES | half-life (in vitro [2]) [min] | half-life (in vitro [4]) [min] | F ([5]; female) [%] | AUC0->24 h ([5]; female) [µM·h] | CL ([5]; female) [mL/min/kg] | t1/2 ([5]; female) [min] | tmax ([5]; female) [min] | AUC0->24 h ([5]; male) [µM·h] | CL ([5]; male) [mL/min/kg] | t1/2 ([5]; male) [min] | tmax ([5]; male) [min] | Plasma t1/2 (Plasma stability, monkey) [min] | Plasma t1/2 (Plasma stability, mouse) [min] | Plasma t1/2 (Plasma stability, human) [min] | further results
1 | CC(C)C(=O)OC[C@H]1O[C@@H](n2ccc(NO)nc2=O)[C@H](O)[C@@H]1O [EIDD-2801] | 73 | 1 | ~26 | 43.8 ± 17.0 | 172 ± 93.3 | 114 ± 78 | 75 ± 30 | 31.7 ± 7.82 | 217 ± 61.7 | 108 ± 54.6 | 120 ± 48.6 |  |  |  | half-life (in vitro [1]): 1 min; Fever [3]: completely avoided; Viral titers in nasal lavage samples [3]: greatly reduced; viral titers in nasal lavage samples and fever [3]: rapidly reduce viral titers in nasal lavage samples as well as fever; Cmax ([5]; female): 12.3 ± 2.33 µM; Cmax ([5]; male): 8.08 ± 1.32 µM; half-life (in vitro [6]): 2 min; viral titers in nasal lavage and turbinates ([7]; 20 mg/kg): greatly reduced; Viral titers in nasal lavage, fever, and viral titers in turbinates ([7]; 100 mg/kg): greatly reduced; half-life (in vitro [8]): 5 min
2 | CC(C)C(=O)OC[C@H]1O[C@@H](n2ccc(NO)nc2=O)[C@H](OC(=O)C(C)C)[C@@H]1OC(=O)C(C)C [EIDD-2800] | 1 | 2 | ~16 | 27.4 ± 11.5 | 265 ± 128 | 264 ± 72 | 18.6 ± 7.2 | 38.9 ± 7.58 | 152 ± 21.7 | 330 ± 252 | 22.2 ± 8.4 | 2 | 1 | 1 | 
3 | CC(C)[C@H](N)C(=O)OC[C@H]1O[C@@H](n2ccc(NO)nc2=O)[C@H](O)[C@@H]1O [EIDD-2898] |  |  |  |  |  |  |  |  |  |  |  | 138 | 144 | 198 | F [5]: ~15%; F* [5]: ~18%
4 | O=c1nc(NO)ccn1[C@@H]1O[C@H](COP(=O)(O)OP(=O)(O)OP(=O)(O)O)[C@@H](O)[C@H]1O [EIDD-2061] |  |  |  |  |  |  |  |  |  |  |  |  |  |  | AUC0->t (Vero cells): 13850 pmol · h/M cells; Cmax (Vero cells): 872.0 pmol/M Cells; tmax (Vero cells): 960 min; Brain Cmax ([9]; 225 mg/kg): 3.5 nmol/g; Brain Cmax ([9]; 750 mg/kg): 5.5 nmol/g; AUC0->t (HepG2 cells): 299.8 pmol · h/M cells; Cmax (HepG2 cells): 470.3 pmol/M Cells; tmax (HepG2 cells): 960 min; AUC0->t (CEM cells): 2355 pmol · h/M cells; Cmax (CEM cells): 171.3 pmol/M Cells; tmax (CEM cells): 1440 min; AUC0->t (Huh-7 cells): 14640 pmol · h/M cells; Cmax (Huh-7 cells): 1113.3 pmol/M Cells; tmax (Huh-7 cells): 1440 min
